# Laboratory results reported in US20090005363A1, “Organic Compounds” (priority 2005, published 2009).
# Where a name gives a salt, the structure may show the parent alone.
# Biological target: mGluR5 (Homo sapiens, UniProt P41594)
# Experiment: inhibition of the glutamate induced elevation of intracellular Ca2+ concentration
# Details: inhibition of glutamate induced elevation of intracellular Ca2+ concentration at 10 μM
# From the text: This can be determined in vitro for example at recombinant human metabotropic glutamate receptors, especially PLC-coupled subtypes thereof such as mGluR5, using different procedures like, for example, measurement of the inhibition of the agonist induced elevation of intracellular Ca^2+ concentration in accordance with L. P. Daggett et al., Neuropharm.
# Chain of mGluR5 (P41594 21-1180 isoform P41594-2 limits assumed): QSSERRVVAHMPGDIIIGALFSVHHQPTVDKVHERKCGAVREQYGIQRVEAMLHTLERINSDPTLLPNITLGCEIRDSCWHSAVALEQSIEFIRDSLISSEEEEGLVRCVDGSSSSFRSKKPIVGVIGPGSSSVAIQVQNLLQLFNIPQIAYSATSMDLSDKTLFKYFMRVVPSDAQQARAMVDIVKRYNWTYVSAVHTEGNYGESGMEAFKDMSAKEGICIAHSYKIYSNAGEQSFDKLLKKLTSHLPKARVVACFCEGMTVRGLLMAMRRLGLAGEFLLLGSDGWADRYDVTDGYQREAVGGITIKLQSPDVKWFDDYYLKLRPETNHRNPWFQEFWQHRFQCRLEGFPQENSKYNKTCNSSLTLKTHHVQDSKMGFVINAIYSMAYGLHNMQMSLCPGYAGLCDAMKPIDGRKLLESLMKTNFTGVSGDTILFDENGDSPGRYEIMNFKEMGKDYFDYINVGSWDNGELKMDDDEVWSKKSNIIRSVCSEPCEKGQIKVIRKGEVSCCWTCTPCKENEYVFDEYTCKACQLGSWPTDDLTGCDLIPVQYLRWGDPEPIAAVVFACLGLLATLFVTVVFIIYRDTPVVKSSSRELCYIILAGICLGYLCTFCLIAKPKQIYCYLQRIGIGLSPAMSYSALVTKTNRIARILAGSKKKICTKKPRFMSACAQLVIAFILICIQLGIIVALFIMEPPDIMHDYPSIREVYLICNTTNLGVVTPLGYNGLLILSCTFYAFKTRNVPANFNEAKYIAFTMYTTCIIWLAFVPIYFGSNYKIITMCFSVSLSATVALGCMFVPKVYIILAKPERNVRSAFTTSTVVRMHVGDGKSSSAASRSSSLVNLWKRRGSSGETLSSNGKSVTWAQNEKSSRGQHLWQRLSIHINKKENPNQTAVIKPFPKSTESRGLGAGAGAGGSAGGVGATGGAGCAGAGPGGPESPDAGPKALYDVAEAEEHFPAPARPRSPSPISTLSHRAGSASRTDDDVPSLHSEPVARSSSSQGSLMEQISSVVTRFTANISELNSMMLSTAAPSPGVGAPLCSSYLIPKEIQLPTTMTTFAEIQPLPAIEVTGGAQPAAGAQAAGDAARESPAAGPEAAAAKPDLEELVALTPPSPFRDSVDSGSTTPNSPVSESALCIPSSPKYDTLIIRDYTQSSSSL
row,SMILES,mGluR5 Activity inh. at 10 μM [%]
1,"C[C@H]1CCCN(C(=O)c2ccc(Nc3ccc(Cl)cc3)nc2)C1 [Compound 1.12a, [6-(4-Chloro-phenylamino)-pyridin-3-yl]-(S-3-methyl-piperidin-1-yl)-methanone]",99%
2,Cc1ccc(Nc2ccc(C(=O)N3CCCC(C)C3)cn2)cc1 (stereo not drawn) [Compound 1.13],96%
3,"COc1ccc(Nc2ccc(C(=O)N3C[C@@H](C)O[C@@H](C)C3)cn2)cc1.Cl [Compound 1.21, (cis-Z 6-Dimethyl-morpholin-4-yl)-[6-(4-methoxy-phenylamino)-pyridin-3-yl]-methanone hydrochloride]",57%

# Same assay, conditions: read-out: mGluR5 Activity inh. at 10 μM [%]
row,SMILES,inhibition at 10 µM
1,"CC1CCCN(C(=O)c2ccc(Nc3ccc(Cl)cc3)nc2)C1 (racemic) [Compound 1.12, rac-[6-(4-Chloro-phenylamino)-pyridin-3-yl]-(3-methyl-piperidin-1-yl)-methanone]",93%
2,"O=C(c1cnc(Nc2ccc(Cl)cc2)c(Cl)c1)N1CC2CCC1C2 (racemic) [Compound 2.4, rac-(2-Aza-bicyclo[2.2.1]hept-2-yl)-[5-chloro-6-(4-chloro-phenylamino)-pyridin-3-yl]-methanone]",100%
3,"COc1ccc(Nc2ncc(C(=O)N3CCCC(C)C3)cc2Cl)cn1 (racemic) [Compound 2.6, rac-[5-Chloro-6-(6-methoxy-pyridin-3-ylamino)-pyridin-3-yl]-(3-methyl-piperidin-1-yl)-methanone]",98%
4,"Cc1ccc(Nc2ncc(C(=O)N3CC4CCC3C4)cc2Cl)cn1 (racemic) [Compound 2.13, rac-(2-Aza-bicyclo[2.2.1]hept-2-yl)-[5-chloro-6-(6-methyl-pyridin-3-ylamino)-pyridin-3-yl]-methanone]",96%
5,"Cc1ccc(Oc2ncc(C(=O)N3CCCC(C)C3)cc2Cl)cn1 (racemic) [Compound 3.1, rac-[5-Chloro-6-(6-methyl-pyridin-3-yloxy)-pyridin-3-yl]-(3-methyl-piperidin-1-yl)-methanone]",94%
6,"O=C(c1ccc(Nc2ccc(Cl)cc2)nc1)N1CCCC(CO)C1 (racemic) [Compound 4.6, rac-[6-(4-Chloro-phenylamino)-pyridin-3-yl]-(3-hydroxymethyl-piperidin-1-yl)-methanone]",86%
7,"COC1CCCN(C(=O)c2ccc(Nc3ccc(Cl)cc3)nc2)C1 (racemic) [Compound 4.7, rac-[6-(4-Chloro-phenylamino)-pyridin-3-yl]-(3-methoxy-piperidin-1-yl)-methanone]",87%
8,"O=C(c1ccc(Nc2ccc(Cl)cc2)nc1)N1CC2CCC1C2 (racemic) [Compound 4.12, rac-(2-Aza-bicyclo[2.2.1]hept-2-yl)-[6-(4-chloro-phenylamino)-pyridin-3-yl]-methanone]",96%
9,"Cc1ccc(Nc2ccc(C(=O)N3CCCC(C)C3)cn2)cn1 (racemic) [Compound 4.13, rac-(3-Methyl-piperidin-1-yl)-[6-(6-methyl-pyridin-3-ylamino)-pyridin-3-yl]-methanone]",97%
10,"CC1CCCN(C(=O)c2cnc(Nc3ccc(Cl)cc3)nc2)C1 (racemic) [Compound 5.5, rac-[2-(4-Chloro-phenylamino)-pyrimidin-5-yl]-(3-methyl-piperidin-1-yl)-methanone]",96%
11,"CC1CCCN(C(=O)c2ccc(Nc3ccc(Cl)cc3)nn2)C1 (racemic) [Compound 8.2, rac-[6-(4-Chloro-phenylamino)-pyridazin-3-yl]-(3-methyl-piperidin-1-yl)-methanone]",100%
12,"Cc1cccc(C#C[C@]2(O)CCC[C@@H]3[C@H]2CCN3C(=O)c2ccc(Nc3ccc(Cl)cc3)nc2)c1 (relative stereo) [Compound 4.14, [6-(4-Chloro-phenylamino)-pyridin-3-yl]-(rel-(3aR,4S,7aR)-4-hydroxy-4-m-tolylethynyl-octahydro-indol-1-yl)-methanone]",86%
13,"CCN(CC)C(=O)c1ccc(Nc2ccc(Cl)cc2)nc1 [Compound 1.1, 6-(4-Chloro-phenylamino)-N,N-diethyl-nicotinamide hydrochloride]",95%
14,"CCN(CC)C(=O)c1ccc(Nc2ccc(C)cc2)nc1 [Compound 1.2, N,N-Diethyl-6-p-tolylamino-nicotinamide hydrochloride]",93%
15,"CCN(CC)C(=O)c1ccc(Nc2ccc(OC)cc2)nc1 [Compound 1.3, N,N-Diethyl-6-(4-methoxy-phenylamino)-nicotinamide hydrochloride]",75%
16,"COCCN(CCOC)C(=O)c1ccc(Nc2ccc(Cl)cc2)nc1 [Compound 1.4, 6-(4-Chloro-phenylamino)-N,N-bis-(2-methoxy-ethyl)-nicotinamide hydrochloride]",37%
17,"O=C(c1ccc(Nc2ccc(Cl)c(F)c2)nc1)N1CCCCC1 [Compound 1.5, [6-(4-Chloro-3-fluoro-phenylamino)-pyridin-3-yl]-piperidin-1-yl-methanone]",90%
18,"O=C(c1ccc(Nc2ccc(Br)cc2)nc1)N1CCCCC1 [Compound 1.6, [6-(4-Bromo-phenylamino)-pyridin-3-yl]-piperidin-1-yl-methanone]",96%
19,"N#Cc1ccc(Nc2ccc(C(=O)N3CCCCC3)cn2)cc1 [Compound 1.7, 4-[5-(Piperidine-1-carbonyl)-pyridin-2-ylamino]-benzonitrile]",77%
20,"O=C(c1ccc(Nc2ccc(OC(F)(F)F)cc2)nc1)N1CCCCC1 [Compound 1.8, Piperidin-1-yl-[6-(4-trifluoromethoxy-phenylamino)-pyridin-3-yl]-methanone]",54%

row,SMILES,inhibition at 10 µM
1,"CC1CCCCN1C(=O)c1ccc(Nc2ccc(Cl)cc2)nc1 (stereo not drawn) [Compound 1.9, [6-(4-Chloro-phenylamino)-pyridin-3-yl]-(2-methyl-piperidin-1-yl)-methanone hydrochloride]",97%
2,"Cc1ccc(Nc2ccc(C(=O)N3CCCCC3C)cn2)cc1 (stereo not drawn) [Compound 1.10, (2-Methyl-piperidin-1-yl)-(6-p-tolylamino-pyridin-3-yl)-methanone]",94%
3,"COc1ccc(Nc2ccc(C(=O)N3CCCCC3C)cn2)cc1 (stereo not drawn) [Compound 1.11, [6-(4-Methoxy-phenylamino)-pyridin-3-yl]-(2-methyl-piperidin-1-yl)-methanone hydrochloride]",71%
4,"C[C@@H]1CCCN(C(=O)c2ccc(Nc3ccc(Cl)cc3)nc2)C1 [Compound 1.12b, [6-(4-Chloro-phenylamino)-pyridin-3-yl]-(R-3-methyl-piperidin-1-yl)-methanone]",100%
5,"COc1ccc(Nc2ccc(C(=O)N3CCCC(C)C3)cn2)cc1 (stereo not drawn) [Compound 1.14, [6-(4-Methoxy-phenylamino)-pyridin-3-yl]-(3-methyl-piperidin-1-yl)-methanone hydrochloride]",94%
6,"CC1CCCN(C(=O)c2ccc(Nc3ccccc3)nc2)C1 (stereo not drawn) [Compound 1.15, (3-Methyl-piperidin-1-yl)-(6-phenylamino-pyridin-3-yl)-methanone hydrochloride]",88%
7,"CC1CCCN(C(=O)c2ccc(Nc3cccc(Cl)c3)nc2)C1 (stereo not drawn) [Compound 1.16, [6-(3-Chloro-phenylamino)-pyridin-3-yl]-(3-methyl-piperidin-1-yl)-methanone hydrochloride]",54%
8,"O=C(c1ccc(Nc2ccc(Cl)cc2)nc1)N1CCOCC1 [Compound 1.17, [6-(4-Chloro-phenylamino)-pyridin-3-yl]-morpholin-4-yl-methanone hydrochloride]",83%
9,"COc1ccc(Nc2ccc(C(=O)N3CCOCC3)cn2)cc1 [Compound 1.18, [6-(4-Methoxy-phenylamino)-pyridin-3-yl]-morpholin-4-yl-methanone hydrochloride]",32%
10,"C[C@@H]1CN(C(=O)c2ccc(Nc3ccc(Cl)cc3)nc2)C[C@H](C)O1 [Compound 1.19, cis-[6-(4-Chloro-phenylamino)-pyridin-3-yl]-(2,6-dimethyl-morpholin-4-yl)-methanone hydrochloride]",94%
11,"Cc1ccc(Nc2ccc(C(=O)N3C[C@@H](C)O[C@@H](C)C3)cn2)cc1 [Compound 1.20, (cis-2,6-Dimethyl-morpholin-4-yl)-(6-p-tolylamino-pyridin-3-yl)-methanone hydrochloride]",95%
12,"O=C(c1ccc(Nc2ccc(Cl)cn2)nc1)N1CCCCC1 [Compound 2.1, [6-(5-Chloro-pyridin-2-ylamino)-pyridin-3-yl]-piperidin-1-yl-methanone]",60%
13,"O=C(c1ccc(Nc2cccnc2)nc1)N1CCCCCC1 [Compound 2.2, Azepan-1-yl-[6-(pyridin-3-ylamino)-pyridin-3-yl]-methanone]",46%
14,"O=C(c1ccc(Nc2ccc(F)c(F)c2)nc1)N1CCCCC1 [Compound 2.3, [6-(3,4-Difluoro-phenylamino)-pyridin-3-yl]-piperidin-1-yl-methanone]",65%
15,"O=C(c1cnc(Nc2ccc(Cl)cc2)c(Cl)c1)N1CCSCC1 [Compound 2.5, [5-Chloro-6-(4-chloro-phenylamino)-pyridin-3-yl]-thiomorpholin-4-yl-methanone]",97%
16,"COc1ccc(Nc2ncc(C(=O)N3CCCCCC3)cc2Cl)cn1 [Compound 2.7, Azepan-1-yl-[5-chloro-6-(6-methoxy-pyridin-3-ylamino)-pyridin-3-yl]-methanone]",98%
17,"COc1ccc(Nc2ncc(C(=O)N3CCCCC3)cc2Cl)cn1 [Compound 2.8, [5-Chloro-6-(6-methoxy-pyridin-3-ylamino)-pyridin-3-yl]-piperidin-1-yl-methanone]",96%
18,"CCOc1ccc(Nc2ncc(C(=O)N3CCCCC3)cc2Cl)cn1 [Compound 2.9, [5-Chloro-6-(6-ethoxy-pyridin-3-ylamino)-pyridin-3-yl]-piperidin-1-yl-methanone]",100%
19,"Cc1ccc(Nc2ncc(C(=O)N3CCSC3)cc2Cl)cn1 [Compound 2.14, [5-Chloro-6-(6-methyl-pyridin-3-ylamino)-pyridin-3-yl]-thiazolidin-3-yl-methanone]",97%
